Measurements published in ChEMBL document CHEMBL5465560, “Selectivity Literature for EUbOPEN Chemogenomic Library” (2024).

Key:
[1] = biological target: T1, Uncharacterized serine/threonine-protein kinase SBK3 (Homo sapiens) (UniProt P0C264); test: Selectivity interaction (KinomeScan (DiscoverX)) EUB0000666a SBK3; conditions: at 10 µM
T1 sequence (whole entry): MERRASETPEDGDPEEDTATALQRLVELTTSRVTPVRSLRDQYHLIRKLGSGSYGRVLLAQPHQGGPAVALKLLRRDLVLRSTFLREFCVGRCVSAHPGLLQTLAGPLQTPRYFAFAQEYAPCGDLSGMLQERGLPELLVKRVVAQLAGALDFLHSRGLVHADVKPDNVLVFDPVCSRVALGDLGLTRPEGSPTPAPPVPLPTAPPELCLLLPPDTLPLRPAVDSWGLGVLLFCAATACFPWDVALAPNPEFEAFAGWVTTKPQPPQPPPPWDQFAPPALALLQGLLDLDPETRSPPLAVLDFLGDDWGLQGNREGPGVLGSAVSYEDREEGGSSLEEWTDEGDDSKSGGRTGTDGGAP

[2] = biological target: T2, Bromodomain-containing protein 9 (Homo sapiens, UniProt Q9H8M2); test: Selectivity interaction (ITC measurement) EUB0000233b BRD9
T2 sequence (Q9H8M2 whole entry): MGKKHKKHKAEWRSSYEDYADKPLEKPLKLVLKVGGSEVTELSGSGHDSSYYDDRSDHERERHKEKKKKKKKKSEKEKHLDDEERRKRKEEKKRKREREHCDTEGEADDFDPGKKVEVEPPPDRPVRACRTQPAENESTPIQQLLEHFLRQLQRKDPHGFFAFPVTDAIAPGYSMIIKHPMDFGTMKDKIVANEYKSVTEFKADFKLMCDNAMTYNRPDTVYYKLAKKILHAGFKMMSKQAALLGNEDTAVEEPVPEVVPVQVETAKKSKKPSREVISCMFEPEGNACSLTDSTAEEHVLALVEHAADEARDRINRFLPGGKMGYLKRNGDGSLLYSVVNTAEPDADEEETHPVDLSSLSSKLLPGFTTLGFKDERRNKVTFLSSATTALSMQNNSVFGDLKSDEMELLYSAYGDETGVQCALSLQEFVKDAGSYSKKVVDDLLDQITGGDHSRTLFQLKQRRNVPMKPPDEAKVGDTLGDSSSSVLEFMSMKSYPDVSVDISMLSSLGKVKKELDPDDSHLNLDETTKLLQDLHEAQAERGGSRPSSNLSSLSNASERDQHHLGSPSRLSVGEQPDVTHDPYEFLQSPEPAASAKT

[3] = biological target: T3, Mitogen-activated protein kinase kinase kinase 6 (Homo sapiens) (UniProt O95382); test: Selectivity interaction (ActivX KiNativ screen (ex vivo kinase selectivity in human PBMCs)) EUB0001619a MAP3K6; type: cell-based; conditions: PBMC, at 1 µM
T3 sequence (whole entry): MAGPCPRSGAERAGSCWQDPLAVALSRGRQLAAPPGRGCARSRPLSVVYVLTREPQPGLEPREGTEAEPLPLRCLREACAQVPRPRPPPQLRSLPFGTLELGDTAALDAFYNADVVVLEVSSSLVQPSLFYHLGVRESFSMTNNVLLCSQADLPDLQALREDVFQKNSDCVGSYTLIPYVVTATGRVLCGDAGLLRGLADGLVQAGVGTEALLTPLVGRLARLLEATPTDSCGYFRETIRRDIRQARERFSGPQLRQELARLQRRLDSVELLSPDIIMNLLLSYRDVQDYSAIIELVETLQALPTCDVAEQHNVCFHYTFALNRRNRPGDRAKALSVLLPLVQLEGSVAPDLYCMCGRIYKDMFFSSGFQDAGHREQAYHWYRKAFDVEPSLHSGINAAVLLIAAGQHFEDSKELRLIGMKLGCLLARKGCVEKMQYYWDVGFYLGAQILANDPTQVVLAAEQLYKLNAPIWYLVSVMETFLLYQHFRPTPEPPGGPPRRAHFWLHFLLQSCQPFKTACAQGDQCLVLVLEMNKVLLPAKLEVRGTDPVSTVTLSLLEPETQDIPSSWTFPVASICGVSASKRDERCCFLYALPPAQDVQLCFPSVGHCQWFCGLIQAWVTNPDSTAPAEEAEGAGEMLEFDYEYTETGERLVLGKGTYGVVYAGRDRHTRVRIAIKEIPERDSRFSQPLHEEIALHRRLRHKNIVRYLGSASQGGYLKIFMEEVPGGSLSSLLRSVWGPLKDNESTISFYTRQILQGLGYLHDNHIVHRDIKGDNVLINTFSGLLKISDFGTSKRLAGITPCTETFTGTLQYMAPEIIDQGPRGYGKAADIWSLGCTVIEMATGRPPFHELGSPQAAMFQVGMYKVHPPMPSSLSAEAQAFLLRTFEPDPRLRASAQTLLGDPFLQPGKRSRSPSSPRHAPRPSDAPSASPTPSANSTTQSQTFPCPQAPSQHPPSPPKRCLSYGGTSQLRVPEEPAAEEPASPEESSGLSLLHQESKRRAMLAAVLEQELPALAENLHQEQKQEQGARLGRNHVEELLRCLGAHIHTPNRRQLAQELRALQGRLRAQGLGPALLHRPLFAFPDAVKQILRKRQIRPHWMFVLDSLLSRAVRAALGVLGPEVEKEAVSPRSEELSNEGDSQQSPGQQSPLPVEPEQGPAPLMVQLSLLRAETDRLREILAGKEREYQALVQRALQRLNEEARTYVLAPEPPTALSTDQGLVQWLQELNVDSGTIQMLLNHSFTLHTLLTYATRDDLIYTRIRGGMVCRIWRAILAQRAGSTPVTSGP

[4] = biological target: T4, Interleukin-1 receptor-associated kinase 3 (Homo sapiens) (UniProt Q9Y616); test: Selectivity interaction (LanthaScreen Eu Kinase Binding Assay) EUB0001632a IRAK3; conditions: at 10 µM
T4 sequence (whole entry): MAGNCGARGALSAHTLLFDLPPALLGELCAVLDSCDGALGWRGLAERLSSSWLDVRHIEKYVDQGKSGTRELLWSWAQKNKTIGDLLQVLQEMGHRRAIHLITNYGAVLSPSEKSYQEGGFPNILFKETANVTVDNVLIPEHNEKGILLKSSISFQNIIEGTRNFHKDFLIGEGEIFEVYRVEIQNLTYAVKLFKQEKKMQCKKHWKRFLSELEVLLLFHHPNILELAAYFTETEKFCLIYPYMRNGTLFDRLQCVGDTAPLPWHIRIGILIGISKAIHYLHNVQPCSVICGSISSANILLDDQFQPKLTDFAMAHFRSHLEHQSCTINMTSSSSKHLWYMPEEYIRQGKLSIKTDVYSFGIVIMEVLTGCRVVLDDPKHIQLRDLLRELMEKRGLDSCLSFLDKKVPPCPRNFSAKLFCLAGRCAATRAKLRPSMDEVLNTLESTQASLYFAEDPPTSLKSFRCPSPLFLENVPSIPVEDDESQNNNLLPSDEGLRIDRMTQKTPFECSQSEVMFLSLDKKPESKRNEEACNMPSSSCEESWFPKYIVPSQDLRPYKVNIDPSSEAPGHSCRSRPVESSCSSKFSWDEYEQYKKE

O=C(NOC[C@H](O)CO)c1ccc(F)c(F)c1Nc1ccc(I)cc1F
% of control [1]: 100%

CN(C)CCCOc1ccc(-c2cc(NCCCn3cccn3)nc(S(C)(=O)=O)n2)cc1
Kd [2]: 1100 nM

N#Cc1cccc(-c2c[nH]c3ncnc(N4CCOCC4)c23)c1
% of inhibition [3]: 21%

Cn1cc(-n2cnc3c(NCc4nc5cc(Cl)c(Cl)cc5[nH]4)nc(N4CCOCC4)nc32)cn1
% of inhibition [4]: -15.9%
